Where two headings read alike, the source gives them in different places.

Consider eight compounds from article PMC7913524, “Novel Biphenyl Amines Inhibit Oestrogen Receptor (ER)-α in ER-Positive Mammary Carcinoma Cells” (Molecules, 2021).

Data set [1] deals with T1, ERα (Homo sapiens, UniProt P03372).
T1 construct: purchased Life Technologies
T1 sequence (P03372 1-595): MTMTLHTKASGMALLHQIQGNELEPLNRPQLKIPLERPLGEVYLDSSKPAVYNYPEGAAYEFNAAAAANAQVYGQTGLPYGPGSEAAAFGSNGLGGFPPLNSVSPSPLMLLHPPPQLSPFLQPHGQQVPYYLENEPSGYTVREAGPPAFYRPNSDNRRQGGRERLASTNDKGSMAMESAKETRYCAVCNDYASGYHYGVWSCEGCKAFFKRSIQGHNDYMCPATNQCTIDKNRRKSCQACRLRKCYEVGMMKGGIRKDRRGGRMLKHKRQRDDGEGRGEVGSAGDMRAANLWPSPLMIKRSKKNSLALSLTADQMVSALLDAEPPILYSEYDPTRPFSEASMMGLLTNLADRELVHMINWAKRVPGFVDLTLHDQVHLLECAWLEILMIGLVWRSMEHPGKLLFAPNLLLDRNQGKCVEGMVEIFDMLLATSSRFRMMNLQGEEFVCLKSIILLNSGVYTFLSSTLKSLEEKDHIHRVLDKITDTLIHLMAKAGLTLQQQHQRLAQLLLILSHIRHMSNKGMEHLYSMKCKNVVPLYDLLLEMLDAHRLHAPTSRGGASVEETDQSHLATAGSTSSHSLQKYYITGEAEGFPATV
Briefly: ER-alpha competitive binding assay (PolarScreen ER Alpha Competitor, fluorescence polarization). To be noted: read-out: CBA IC50 + SD (competitive binding affinity). The source says:
First, to rank the novel biphenyl derivatives based on binding affinity to ERα, a commercially available fluorescence polarization assay kit (PolarScreen™ ER Alpha Competitor assay) was utilized. […] The smaller size of the free molecule can be discerned by increased mobility in the solution, which is detected by fluorescence polarization (FP). A shift in the FP value in the presence of the test compounds is used to determine the relative affinity of test compounds for ERα.
The assay was performed as per the manufacturer’s instructions. The Fluorescence polarization value (mP) of each well on a fluorescence polarization plate was measured using fluorescence polarization Tecan infinite M1000PRO multimode microplate reader (Tecan, Switzerland). Data were modelled using GraphPad Prism® software from GraphPad Software, Inc..

Data set [2] concerns MCF7 cells. Put plainly: AlamarBlue cell viability assay, MCF7. It is filed as cell-based, human. To be noted: read-out: Cell Viability (MCF7 Cells) IC50 ± SD. The procedure:
(§1) Next, we determined the potential functional effects of novel ATBA compounds on the viability of MCF7 cells using an AlamarBlue® cell viability assay. […] We also determined the functional efficacy of the 4c compound in additional ER+ MC cell lines using an AlamarBlue® cell viability assay.
The human Michigan Cancer Foundation-7 (MCF7) cell line was obtained from the American Type Culture Collection (ATCC, Rockville, Gaithersburg, MD, USA) and was cultured as per ATCC propagation instructions.
(§2) AlamarBlue®, 3D Matrigel, and luciferase assay: AlamarBlue® cell viability kits were obtained from ThemoFisher Scientific (Waltham, Massachusetts, USA), and the assay was performed as previously described. 3D Matrigel assays were performed as previously described. Luciferase assays were performed as previously described. Briefly, transfections were carried out in triplicate using 1 μg of the appropriate luciferase reporter construct or empty vector along with 0.1 μg of Renilla luciferase construct as a control for transfection efficiency. Luciferase activities were measured using the Dual-Luciferase Assay System (Promega Corp, Madison, WI, USA).

The test system of data set [3] is MCF7 cell-generated spheroids. Put plainly: 3D Matrigel spheroid cell viability. Type of data set: cell-based, human. The conditions noted are these: preformed MCF7 spheroids in 3D Matrigel, 5 µM, 72 h. How it is done: Furthermore, we examined the effect of the novel biphenyl derivatives on preformed spheroids generated using MC cells in 3D Matrigel (Figure 2).
as §2
Figure 2 Cell viability of MCF7 cell-generated spheroids after culture in 3D Matrigel for 10 days. Preformed MCF7 cell-generated spheroids were treated with compounds for 72 h before assessing cell viability. A concentration of 5 µM was used for the treatment. The cell viability of the MCF7 cell-generated spheroids was evaluated using an AlamarBlue® viability assay as described in the Materials and Methods section. Bars are the mean of triplicate experiments; bars, ±SD. ** P < 0.001, * P < 0.05.

The subject of data set [4] is oestrogen response element (ERE) transcriptional activity (ERα). Briefly: ERE-luc luciferase reporter assay in MCF7 cells. It is filed as cell-based, human. The conditions noted are these: for antagonist activity against ERα (luciferase activity): MCF7 cells, with E2 10^-8 M, compounds 10^-10 to 10^-4 M. How it is done: as §2, with “Next, to evaluate the activity of the synthesized compounds as agonists or antagonists to ERα, a reporter assay was performed with ERE-luc. […] AlamarBlue®,” for “AlamarBlue®,”, “USA). […] (lower panel). MCF7 cells were co-transfected with ERE-luc (firefly luciferase) and Renilla luciferase constructs as described in the Materials and Methods section. […] Results are shown as mean (+SD for triplicate transfection).” for “USA).”
A general note: Reporter assays use an easily measured gene product as a stand-in for the process of interest.

Data set [5] concerns T47D cells. Briefly: AlamarBlue cell viability assay, T47D. The conditions noted are these: Homo sapiens. It is filed as cell-based. How it is done: as §1, §2
Background: The colour change of resazurin is a common sign of viable cells or microbes.

Data set [6] has as its system BT474 cells. Put plainly: AlamarBlue cell viability assay, BT474. It is filed as cell-based. The conditions noted are these: Homo sapiens, BT-474. The procedure: as §1, §2
The test system of data set [7] is MDA-MB-361 cells. Briefly: AlamarBlue cell viability assay, MDA-MB-361. It is filed as cell-based. To be noted: Homo sapiens. The procedure: as §1, §2
The subject of data set [8] is CCND1 protein expression. Briefly: Western blot of CCND1 in MCF7 cells. It is filed as cell-based, human. How it is done: Increased expression of CCND1 is associated with approximately 50% of breast cancer cases and directly regulated by ER signalling. To determine functional effects downstream of ERα, we examined the effect of ATBA compounds on hCCND1 protein expression in MC cells. […] Western blot analysis: Western blot analysis was performed as previously described, using a primary monoclonal antibody against CCND1 and β-ACTIN obtained from Cell Signalling, Danvers, Massachusetts, USA. Quantification of blot was performed by use of ImageJ software from NIH, USA (http://imagej.nih.gov/ij/) as described previously. […] Soluble whole-cell extracts were run on an SDS-PAGE and immunoblotted. β-ACTIN was used as input control for cell lysate (left side). The predicted sizes of detected protein bands in kDa are shown on the left side. The average of three independent densitometry analyses of CCND1 and β-ACTIN is shown above (right side) by use of Image J software from NIH, USA (http://imagej.nih.gov/ij/) as described previously.

Data set [9] in a line: vNN-ADMET prediction: MRTD. To be noted: relative to TAM.

Turning to `COc1ccc(Nc2cccnc2)cc1C12CC3CC(CC(C3)C1)C2` [4g], the IC50 came out at 0.129 µM in data set [1] and 12.1 ± 3.07 µM in data set [2] (Homo sapiens, MCF7, AlamarBlue). Besides, the “cell viability of spheroids compared to vehicle (DMSO)” value in data set [3] is recorded as “significantly decreased cell viability”. Moreover, in data set [4], the “antagonist activity against ERα (luciferase activity)” value (“antagonist activity against ERα” for short) was “most potent antagonist activity against ERα in a dosage-dependent manner”.
For the compound `COc1ccc(Nc2ccc(Cl)cc2)cc1C12CC3CC(CC(C3)C1)C2` [4a, 3-(Adamantan-1-yl)-N-(4-chlorophenyl)-4-methoxyaniline], the IC50 was 0.34 µM in data set [1] and more than 50 µM in data set [2] (Homo sapiens, MCF7, AlamarBlue).
The corresponding values for `COc1ccc(Nc2ccc(OC)c(C34CC5CC(CC(C5)C3)C4)c2)cc1` [4b, 3-(Adamantan-1-yl)-4-methoxy-N-(4-methoxyphenyl) aniline] are 0.202 µM and more than 50 µM.
In the case of `COc1ccc(Nc2ccc(C)cn2)cc1C12CC3CC(CC(C3)C1)C2` [4h], the IC50 in data set [1] is 0.189 µM; in data set [2] (AlamarBlue), 42.2 ± 9.31 µM; in data set [2] (Homo sapiens, MCF7, AlamarBlue) it was approximately 50 µM.
Turning to `COc1ccc(Nc2cccc(O)c2)cc1C12CC3CC(CC(C3)C1)C2` [4d, 3-((3-(Adamantan-1-yl)-4-methoxyphenyl)amino) phenol], the IC50 stood at 0.0826 µM in [1] and 8.81 ± 1.85 µM in data set [2] (Homo sapiens, MCF7, AlamarBlue). Further, the “cell viability of spheroids compared to vehicle (DMSO)” value in data set [3] is listed as “significantly decreased cell viability”. The “antagonist activity against ERα” value in data set [4] is “most potent antagonist activity against ERα in a dosage-dependent manner”.
In the case of `COc1ccc(Nc2cccc3ccccc23)cc1C12CC3CC(CC(C3)C1)C2` [4i], the IC50 is 0.264 µM in data set [1]; 47.6 ± 7.48 µM in data set [2] (AlamarBlue); approximately 50 µM in [2] (Homo sapiens, MCF7, AlamarBlue).
Turning to `COc1ccc(Nc2ccc(C)cc2)cc1C12CC3CC(CC(C3)C1)C2` [4f, 3-(Adamantan-1-yl)-4-methoxy-N-(p-tolyl) aniline], the IC50 turned out to be 0.0985 µM in data set [1] and 12.3 ± 3.77 µM in data set [2] (Homo sapiens, MCF7, AlamarBlue). The “cell viability of spheroids compared to vehicle (DMSO)” value in data set [3] is listed as “significantly decreased cell viability”. In [4], the “antagonist activity against ERα” value is listed as “most potent antagonist activity against ERα in a dosage-dependent manner”.
`COc1ccc(Nc2ccc(C(F)(F)F)cc2)cc1C12CC3CC(CC(C3)C1)C2` [4c, 3-(Adamantan-1-yl)-4-methoxy-N-(4-(trifluoromethyl)phenyl) aniline]: the IC50 in [1] was determined as 0.0628 µM; in data set [2] (AlamarBlue), 6.29 ± 2.41 µM; in [2] (Homo sapiens, MCF7, AlamarBlue) it was 6.4 µM; in data set [5], 7.38 µM; in data set [6], 6.36 µM; in [7], 8.31 µM. Besides, the midpoint of inhibition in data set [4] (Homo sapiens, MCF7), the IC50, lay at 0.83 ± 0.06 µM. Besides, in [3], the “cell viability of spheroids compared to vehicle (DMSO)” value is “significantly decreased cell viability”. In addition, the figures for the “inhibitory effect on spheroids compared to TAM-treated spheroids” value in data set [3] and in data set [3] (listed as AMTA) were “significant inhibitory effect compared to TAM-treated MC cell-generated spheroids” and “superior inhibitory effect compared to tamoxifen-treated MC cell spheroids”, respectively. For the same compound, the “antagonist activity against ERα” value in [4] is reported as “most potent antagonist activity against ERα in a dosage-dependent manner”; in data set [4] (listed as AMTA), “significantly deceased ERE transcriptional activity”. Also, the CCND1 protein levels entry in [8] is reported as “most potently decreased the protein levels of CCND1 in MC cells in the nanomolar range”; in [8] (listed as AMTA), “significantly decreased protein levels of oestrogen-regulated CCND1 in a dose-dependent manner”. The “predicted maximum recommended therapeutic dose compared to TAM” value in data set [9] is reported as “approximately four times higher”.

For orientation: IC50 means the concentration at which inhibition is half-maximal.
